Columns and labels:
Assay in all cases: Kinase inhibitor library screening, PrestoBlue cell viability, 1 or 10 μM, 72 h
[1] = tested on: A375-GP cells (Dabrafenib-resistant); conditions: A375 GP, 72 h
[2] = tested on: 501Mel-XP cells (Vemurafenib-resistant); conditions: 501Mel XP, 72 h
[3] = tested on: 501Mel cells (parental); conditions: 501Mel Parental, 72 h
Outline: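 PrestoBlue viability readout after 72 h exposure to each inhibitor at 1 or 10 μM, reported relative to untreated cells as % viability. Lines tested: sensitive parental plus derivatives resistant to Vemurafenib (XP) or Dabrafenib (GP), each run at least in duplicate.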

[4] = tested on: IGR37-GP cells (Dabrafenib-resistant); conditions: IGR37 GP, 72 h
[5] = tested on: IGR37-XP cells (Vemurafenib-resistant); conditions: IGR37 XP, 72 h; for Cell viability in kinase inhibitor library screening, IGR37 XP, 1μΜ: in %
[6] = tested on: 501Mel-GP cells (Dabrafenib-resistant); conditions: 501Mel GP, 72 h
[7] = tested on: A375 cells (parental); conditions: A375 Parental, 72 h
[8] = tested on: IGR37 cells (parental); conditions: IGR37 Parental, 72 h
[9] = tested on: A375-XP cells (Vemurafenib-resistant); conditions: A375 XP, 72 h

| SMILES | Cell viability in kinase inhibitor library screening, A375 GP, 1μΜ ([1]; 1μΜ) | Cell viability in kinase inhibitor library screening, A375 GP, 10μΜ ([1]; 10μΜ) | Cell viability in kinase inhibitor library screening, 501Mel XP, 1μΜ ([2]; 1μΜ, in %) | Cell viability in kinase inhibitor library screening, 501Mel XP, 10μΜ ([2]; 10μΜ, in %) | Cell viability in kinase inhibitor library screening, 501Mel Parental, 1μΜ ([3]; 1μΜ, in %) | Cell viability in kinase inhibitor library screening, 501Mel Parental, 10μΜ ([3]; 10μΜ, in %) | Cell viability in kinase inhibitor library screening, IGR37 GP, 10μΜ ([4]; 10μΜ) [%] | Cell viability in kinase inhibitor library screening, IGR37 XP, 10μΜ ([5]; 10μΜ) [%] | Cell viability in kinase inhibitor library screening, IGR37 XP, 1μΜ ([5]; 1μΜ) | Cell viability in kinase inhibitor library screening, 501Mel GP, 1μΜ ([6]; 1μΜ, in %) | Cell viability in kinase inhibitor library screening, 501Mel GP, 10μΜ ([6]; 10μΜ, in %) | Cell viability in kinase inhibitor library screening, A375 Parental, 10μΜ ([7]; 10μΜ) | Cell viability in kinase inhibitor library screening, A375 Parental, 1μΜ ([7]; 1μΜ) | Cell viability in kinase inhibitor library screening, IGR37 Parental, 1μΜ ([8]; 1μΜ, in %) | Cell viability in kinase inhibitor library screening, IGR37 Parental, 10μΜ ([8]; 10μΜ, in %) | Cell viability in kinase inhibitor library screening, A375 XP, 1μΜ ([9]; 1μΜ) | Cell viability in kinase inhibitor library screening, A375 XP, 10μΜ ([9]; 10μΜ) | also measured |
| --- | --- | --- | --- | --- | --- | --- | --- | --- | --- | --- | --- | --- | --- | --- | --- | --- | --- | --- |
| O=C1NC(=O)[C@@H](c2cn3c4c(cccc24)CCC3)[C@@H]1c1c[nH]c2ccccc12 [ARQ 197 (Tivantinib)] |  |  |  |  |  |  |  |  |  |  |  |  |  |  |  |  |  | cell viability (kinase inhibitor library screening) ([1]; 1μΜ): 30.6%; cell viability (kinase inhibitor library screening) ([1]; 10μΜ): 32.9%; cell viability (kinase inhibitor library screening) ([2]; 1μΜ): 25.8%; cell viability (kinase inhibitor library screening) ([2]; 10μΜ): 10.6%; cell viability (kinase inhibitor library screening) ([3]; 1μΜ): 52.2%; cell viability (kinase inhibitor library screening) ([3]; 10μΜ): 26.1%; cell viability (kinase inhibitor library screening) ([4]; 1μΜ): 85.1%; cell viability (kinase inhibitor library screening) ([4]; 10μΜ): 73.0%; cell viability (kinase inhibitor library screening) ([5]; 1μΜ): 69.4%; cell viability (kinase inhibitor library screening) ([5]; 10μΜ): 43.0%; cell viability (kinase inhibitor library screening) ([6]; 1μΜ): 40.8%; cell viability (kinase inhibitor library screening) ([6]; 10μΜ): 25.6%; cell viability (kinase inhibitor library screening) ([7]; 10μΜ): 29.2%; cell viability (kinase inhibitor library screening) ([7]; 1μΜ): 26.4%; cell viability (kinase inhibitor library screening) ([8]; 1μΜ): 79.8%; cell viability (kinase inhibitor library screening) ([8]; 10μΜ): 16.2%; cell viability (kinase inhibitor library screening) ([9]; 1μΜ): 34.5%; cell viability (kinase inhibitor library screening) ([9]; 10μΜ): 24.5% |
| c1cncc(CN2CCC(n3ncc4c(N5CCOCC5)nc(-c5ccc6[nH]ccc6c5)nc43)CC2)c1 [WAY-600] | 82.4 | 21.9 | 56.9 | 1.0 | 86.8 | 3.0 | 18.4 | 4.5 | 84.1 | 72.3 | 4.3 | 22.3 | 84.4 | 93.5 | 26.3 | 76.7 | 16.9 | Cell viability in kinase inhibitor library screening, IGR37 GP, 1μΜ ([4]; 1μΜ, in %): 95.3 |
| O=C(Nc1cccc(Nc2ncc(Br)c(NCCc3cnc[nH]3)n2)c1)N1CCCC1 [BX-912] | 87.6 | 38.0 | 89.5 | 48.6 | 93.6 | 63.6 | 55.1 | 16.7 | 94.7 | 99.2 | 59.6 | 34.9 | 92.0 | 91.9 | 65.1 | 88.9 | 36.6 |  |
| CS(=O)(=O)CCNCc1ccc(-c2ccc3ncnc(Nc4ccc(OCc5cccc(F)c5)c(Cl)c4)c3c2)o1.Cc1ccc(S(=O)(=O)O)cc1.Cc1ccc(S(=O)(=O)O)cc1 [Lapatinib Ditosylate (Tykerb)] |  |  |  |  |  |  |  |  |  |  |  |  |  |  |  |  |  | cell viability, A375 GP, 10μΜ ([1]; 10μΜ, in %): 81.7; cell viability, 501Mel XP, 1μΜ ([2]; 1μΜ, in %): 94.1; cell viability, 501Mel XP, 10μΜ ([2]; 10μΜ, in %): -0.129; cell viability, 501Mel Parental, 10μΜ ([3]; 10μΜ, in %): 33.4; cell viability, IGR37 GP, 10μΜ ([4]; 10μΜ): 14%; cell viability, IGR37 XP, 10μΜ ([5]; 10μΜ): 1.6%; cell viability, 501Mel GP, 10μΜ ([6]; 10μΜ, in %): 78.0; cell viability, A375 Parental, 10μΜ ([7]; 10μΜ, in %): 78.4; cell viability, IGR37 Parental, 10μΜ ([8]; 10μΜ, in %): 92.3; cell viability, A375 XP, 1μΜ ([9]; 1μΜ, in %): 114.8; cell viability, A375 XP, 10μΜ ([9]; 10μΜ, in %): 72.3 |

Reference: publication PMC6364417, “Kinase inhibitor library screening identifies synergistic drug combinations effective in sensitive and resistant melanoma cells” (Journal of Experimental & Clinical Cancer Research : CR, 2019)
